From patent US20100240652A1, “Pyridine Derivatives as Sodium Channel Modulators” (Pfizer Inc, priority 2006, published 2010)

biological target: T1, Human NaV1.8 (Homo sapiens, UniProt Q9Y5Y9); assay: VIPR assay for NaV1.8 compounds (FRET membrane potential); format: cell-based; conditions: Human NaV1.8 HEK293 expressing cell line, channels held open with deltamethrin
T1 construct: expressed in transfected cells
From the text: The ability of the pyridine derivatives of the formula (I) to inhibit the NaV1.8 channel may be measured using the assay described below.
VIPR Assay for NaV1.8 compounds
This screen is used to determine the effects of compounds on tetrodotoxin-resistant (TTX-R) sodium channels in Human NaV1.8— (HEK293) expressing cell line, utilising the technology of Aurora's fluorescent Voltage/Ion Probe Reader (VIPR). This experiment is based on FRET (Fluorescence Resonance Energy Transfer) and uses two fluorescent molecules. The first molecule, Oxonol (DiSBAC2(3)), is a highly fluorescent, negatively charged, hydrophobic ion that “senses” the trans-membrane electrical potential. In response to changes in membrane potential, it can rapidly redistribute between two binding sites on opposite sides of the plasma membrane. The voltage dependent redistribution is transduced into a ratiometric fluorescent readout via a second fluorescent molecule (Coumarin (CC2-DMPE)) that binds specifically to one face of the plasma membrane and functions as a FRET partner to the mobile voltage-sensing ion. To enable the assay to work, the channels have to be pharmacologically held in the open state. This is achieved by treating the cells with either deltamethrin (for NaV1.8) or veratridine (for the SHSY-5Y assay for TTX-S channels).
Human NaV1.8 cells are grown in T225 flasks, in a 5% CO2 humidified incubator to about 70% confluence. Media composition consists of DMEM/F-12, 10% FCS and 300 μg/ml Geneticine. They are split using cell dissociation fluid 1:5 to 1:20, depending on scheduling needs, and grown for 3-4 days before the next split.
Plate-out HEK-NaV1.8 cells (100 μl per well) into poly-D-lysine coated plates prior to experimentation as follows:—24 hours @ 3.5×10^4 cells/well (3.5×10^5 cells/ml) or using the technology of Select.
1. Equilibrate buffers at room temperature for 2 hours or at 37° C. for 30 minutes prior to experimentation. 2. Prepare Coumarin dye (see below) and store in dark. Prime the plate washer with Na^+ Free buffer and wash cells twice, Note: Plate washer deposits ˜30 μl residual buffer per well. Add 100 μL Coumarin (CC2-DMPE) solution (see below) to cells and incubate for 45 minutes at room temperature avoiding bright light. 3. Prepare Oxonol (DiSBAC2(3)) dye (see below): 4. Aspirate off Coumarin solution from the cells by washing in Na^+ Free buffer. 5. Add 30 μl compound then add 30 μl Oxonol solution to the cells and incubate for 45 minutes at room temperature in the dark (total well volume ˜90 μl). 6. Once the incubation is complete, the cells are ready to be assayed using the VIPR for sodium addback membrane potential.
The data was analyzed and reported as normalised ratios of intensities measured in the 460 nm and 580 nm channels. The process of calculating these ratios was performed as follows. An additional plate contained control solution with the same DisBAC2(3) concentrations as used in the cell plates, however no cells were included in the background plate. Intensity values at each wavelength were averaged for sample points 5-7 (initial) and 44-49 (final). These averages were subtracted from intensity values averaged over the same time periods in all assay wells. The initial ratio obtained from samples 3-8 (Ri) and the final ratio obtained from samples 45-50 (Rf) are defined as: […]
Final data are normalised to the starting ratio of each well and reported as Rf/Ri. This analysis is performed using a computerised specific programme designed for VIPR generated data. Rf/Ri ratio values are plotted using Excel Labstats (curve fit) or analysed via ECADA to determine an IC50 value for each compound.

T1 sequence (Q9Y5Y9 whole entry): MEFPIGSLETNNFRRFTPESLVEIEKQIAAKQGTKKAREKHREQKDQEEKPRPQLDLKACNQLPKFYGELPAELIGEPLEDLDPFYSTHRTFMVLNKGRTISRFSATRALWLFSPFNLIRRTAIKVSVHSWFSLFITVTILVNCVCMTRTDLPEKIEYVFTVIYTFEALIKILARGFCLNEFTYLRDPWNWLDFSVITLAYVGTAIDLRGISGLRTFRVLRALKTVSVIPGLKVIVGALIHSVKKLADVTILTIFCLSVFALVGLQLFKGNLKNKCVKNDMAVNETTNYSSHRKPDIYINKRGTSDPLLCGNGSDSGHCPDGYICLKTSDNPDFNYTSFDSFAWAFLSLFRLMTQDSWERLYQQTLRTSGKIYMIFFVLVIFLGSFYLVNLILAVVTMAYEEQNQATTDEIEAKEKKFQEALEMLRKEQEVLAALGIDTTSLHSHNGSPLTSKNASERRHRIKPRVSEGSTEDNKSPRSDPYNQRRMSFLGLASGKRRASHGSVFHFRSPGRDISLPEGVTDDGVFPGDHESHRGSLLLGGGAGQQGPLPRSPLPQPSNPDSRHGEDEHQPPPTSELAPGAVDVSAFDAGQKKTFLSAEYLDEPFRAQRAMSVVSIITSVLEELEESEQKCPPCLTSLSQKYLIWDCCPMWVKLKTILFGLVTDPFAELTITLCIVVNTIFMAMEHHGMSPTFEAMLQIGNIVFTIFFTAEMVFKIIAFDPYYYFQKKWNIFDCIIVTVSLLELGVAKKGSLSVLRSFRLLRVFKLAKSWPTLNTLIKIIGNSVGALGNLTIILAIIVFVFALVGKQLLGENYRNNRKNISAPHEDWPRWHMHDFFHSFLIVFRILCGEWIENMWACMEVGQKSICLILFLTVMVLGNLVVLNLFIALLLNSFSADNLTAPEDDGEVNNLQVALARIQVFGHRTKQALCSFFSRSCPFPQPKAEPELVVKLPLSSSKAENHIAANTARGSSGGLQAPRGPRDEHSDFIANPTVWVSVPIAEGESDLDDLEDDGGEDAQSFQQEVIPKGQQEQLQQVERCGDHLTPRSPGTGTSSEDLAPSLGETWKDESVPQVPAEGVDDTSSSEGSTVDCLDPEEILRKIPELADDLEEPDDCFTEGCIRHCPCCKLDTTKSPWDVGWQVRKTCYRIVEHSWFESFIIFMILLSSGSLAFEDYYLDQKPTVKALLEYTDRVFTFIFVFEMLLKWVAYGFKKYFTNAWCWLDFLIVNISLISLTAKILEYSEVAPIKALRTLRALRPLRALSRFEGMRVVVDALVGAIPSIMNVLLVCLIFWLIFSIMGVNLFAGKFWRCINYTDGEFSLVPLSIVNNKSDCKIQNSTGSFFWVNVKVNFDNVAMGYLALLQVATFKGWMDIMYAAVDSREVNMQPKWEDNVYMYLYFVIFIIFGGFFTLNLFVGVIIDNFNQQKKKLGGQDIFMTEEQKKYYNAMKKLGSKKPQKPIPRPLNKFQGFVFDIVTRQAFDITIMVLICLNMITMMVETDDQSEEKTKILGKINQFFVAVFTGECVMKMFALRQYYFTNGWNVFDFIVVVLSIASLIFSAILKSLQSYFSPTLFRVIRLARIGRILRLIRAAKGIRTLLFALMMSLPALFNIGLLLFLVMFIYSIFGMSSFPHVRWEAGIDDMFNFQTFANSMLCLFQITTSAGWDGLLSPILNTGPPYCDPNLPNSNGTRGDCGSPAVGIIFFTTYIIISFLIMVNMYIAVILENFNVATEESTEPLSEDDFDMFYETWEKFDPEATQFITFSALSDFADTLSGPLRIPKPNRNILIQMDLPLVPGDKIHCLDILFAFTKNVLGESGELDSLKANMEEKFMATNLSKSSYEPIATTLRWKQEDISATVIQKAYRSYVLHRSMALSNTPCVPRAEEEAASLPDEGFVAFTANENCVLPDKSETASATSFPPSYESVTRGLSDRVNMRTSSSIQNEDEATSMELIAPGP

SMILES | IC50 [nM]
CC/N=C(\NCC)c1ccc(-c2cc(Cl)cc(Cl)c2Cl)c(N)n1 [Example 5, 6-Amino-N,N′-diethyl-5-(2,3,5-trichloro-phenyl)-pyridine-2-carboxamidine] | 2940
C/N=C(\NCC(F)(F)F)c1ccc(-c2cc(Cl)cc(Cl)c2Cl)c(N)n1 [Example 6, 6-Amino-N-methyl-5-(2,3,5-trichloro-phenyl)-N′-(2,2,2-trifluoro-ethyl)-pyridine-2-carboxamidine] | 1330
CNC(=N)c1ccc(-c2cc(Cl)cc(Cl)c2Cl)c(N)n1 [Example 7, 6-Amino-N-methyl-5-(2,3,5-trichloro-phenyl)-pyridine-2-carboxamidine] | 2400
C/N=C(\NC)c1ccc(-c2cc(Cl)cc(Cl)c2Cl)c(N)n1 [Example 3, 6-Amino-N,N′-dimethyl-5-(2,3,5-trichloro-phenyl)-pyridine-2-carboxamidine] | 1820
C/N=C(/c1ccc(-c2cc(Cl)cc(Cl)c2Cl)c(N)n1)N1CCOCC1 [Example 4, 6-(Methylimino-morpholin-4-yl-methyl)-3-(2,3,5-trichloro-phenyl)-pyridin-2-ylamine] | 4580
CN/C(=N\C#N)c1ccc(-c2cc(Cl)cc(Cl)c2Cl)c(N)n1 [Example 2, 6-Amino-N′-cyano-N-methyl-5-(2,3,5-trichlorophenyl)pyridine-2-carboximidamide] | 1630
CNC(=S)c1ccc(-c2cc(Cl)cc(Cl)c2Cl)c(N)n1 [Example 1, 6-Amino-5-(2,3,5-trichloro-phenyl)-pyridine-2-carbothioic acid methylamide] | 2930
